Columns and labels:
[1] = tested on: CD8+ T cells activated by αCD3/CD28; assay: Proliferation of CD8+ T cells activated by αCD3/CD28 (BrdU incorporation, Biotrak ELISA); assay type: cell-based; settings: 3, 10 and 30 μM (extract concentration expressed in ipolamiide); human CD8+ T cells from PBMCs; FIG. 2A
Method: (§1) FIG. 2—Effect of the aqueous extract of Stachytarpheta cayennensis (3, 10 and 30 μM, concentration expressed in ipolamiide) and isolated ipolamiide (3, 10 and 30 μM) on the proliferation of CD8+ T cells activated by αCD3/CD28 (A) and IFNγ production (B). The effect of the pool of compounds (IV to VIII) and the five novel isolated compounds (IV to VIII) generated after the acid hydrolysis of ipolamiide (30 μM) was also evaluated in the same experiments, proliferation of CD8+ T cells activated by αCD3/CD28 (C) and IFNγ production (D). Tacrolimus (0.5 μM) was used as the positive control for all experiments. The data are the mean±SD of three replicates.
(§2) The extract of Stachytarpheta cayennensis, ipolamiide and derivatives were studied in an experimental in vitro immunological model involving CD8+ T cells and IFNγ. […]
(§3) Peripheral blood mononuclear cells (PBMCs) from healthy volunteers were isolated from leukocyte layers by Ficoll-Hystopaque centrifugation. […] Specifically, it was evaluated the incorporation of BrdU through the Biotrak ELISA System (GE Healthcare, RPN250) per the manufacturer's instructions. The methodology for quantification of interferon gamma comprised the use of the Human IFNγ ELISA Ready-SET-Go kit (eBiosciences 88-7316-88) and followed the manufacturer's instructions. […]

IFNγ = IFNγ production by αCD3/CD28-activated CD8+ T cells (Human IFNγ ELISA); assay type: cell-based; settings: 3, 10 and 30 μM; human CD8+ T cells activated with αCD3/CD28; FIG. 2B
Method: as §1, §2, §3

Q: What does the source list for `COC(=O)C1=CO[C@@H](O[C@@H]2O[C@H](CO)[C@@H](O)[C@H](O)[C@H]2O)[C@@H]2[C@@](C)(O)CC[C@]12O` [ipolamiide]?
A: activation / proliferation of CD8+ T cells induced by αCD3/CD28 [1]: had no effect; secretion of IFNγ (IFNγ): had no effect

Reference: patent publication US12698265B2, “Plant extracts enriched with ipolamiide derivatives as immunosuppressants for treating immunological disorders” (priority 2017, dated 2026)
